From the METLIN SMRT retention time set (Domingo-Almenara et al. 2019)

Assay: gradient 5% acetonitrile 3 min, to 50% in 2 min, to 85% in 15 min, held 3 min, 100 µL/min
Details: column: Zorbax Extend-C18 2.1 x 50 mm; eluents: water / acetonitrile, 0.1% formic acid
In short: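 The system's dead and dwell volumes were 40 μL and 900 μL, with a Zorbax Extend-C18 column (2.1 × 50 mm, 1.8 μm) run at 100 μL/min in water and acetonitrile containing 0.1% formic acid each. Pure standards were analyzed in mixtures of ~100 molecules by HPLC–quadrupole time-of-flight mass spectrometry in positive and negative ionization mode. Retention time was assigned from computationally picked, manually inspected adduct peaks.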

| Structure (SMILES) | RP-LC retention time [s] |
| --- | --- |
| Cc1cccc(NC(=O)N2CCCC2c2nc(-c3cccc(Cl)c3)no2)c1 (stereo not given) | 1100 |
| COc1cc(-c2noc(Cn3cnc4c(oc5ccccc54)c3=O)n2)cc(OC)c1OC | 857 |
| COCCCNC(=O)c1ccc(N2CCCN(Cc3ccccc3C)C2=O)cc1 | 769 |
| CSc1ccc(-c2nc3c(C)cccn3c2Nc2ccc3c(c2)OCCO3)cc1 | 749 |
| CCc1ccc(NC(=O)Cn2cnc3nc(N4CCCC(C(=O)NC)C4)sc3c2=O)cc1 (stereo not given) | 694 |
| CC(C)CNC(=O)c1ccc2c(c1)CCCN2S(=O)(=O)c1ccccc1 | 936 |
| O=C(NCCc1ccco1)c1ccc2ccnc(N3CCN(c4ccc(Cl)cc4)CC3)c2c1 | 887 |
| CCN1CCN(CCCNC(=O)CC2CCN(C(=O)c3[nH]c(C)c(C)c3C)CC2)CC1 | 578 |
| Cc1ccc(S(=O)(=O)N2CC3CN(C(=O)NCc4ccco4)CC(C2)O3)cc1 | 767 |
| COc1ccc(N2CCN(c3ccc(-c4nc(-c5ccccc5)no4)cn3)CC2)cc1 | 1240 |
| COC1CCC12CCN(C(=O)C1CCOCC1)CC2 (stereo not given) | 636 |
| CCc1cccc(NC(=O)N2CCC(OC3CCN(S(C)(=O)=O)CC3)CC2)c1 | 803 |
| CCOc1ccccc1-c1noc(Cn2cnc3c(cnn3-c3ccccc3)c2=O)n1 | 990 |
| CCCN1C(=O)c2c(C(=O)NCc3ccc(F)cc3)ncn2CC1(C)C(=O)NCc1ccc(F)cc1 (stereo not given) | 778 |
| CCn1c(=O)c2ccn(CC(=O)Nc3ccc4c(c3)OCCO4)c2n(CC)c1=O | 701 |
| O=C(NCCn1nnc2cc(C(=O)N3CCCC3)ccc21)Nc1ccc(F)c(Cl)c1 | 704 |
| COc1ccc(S(=O)(=O)N2CCN(c3cc(C)nc(N4CCCCC4)n3)CC2)cc1Cl | 768 |
| CCc1ccccc1NC(=O)C1CCC(=O)N1S(=O)(=O)c1ccc(C)c(C)c1 (stereo not given) | 978 |
| O=C(NC1CC1)c1ccc(OCC2CCCN(C(=O)C3CC3)C2)cc1 (stereo not given) | 718 |
| Cc1oc(-c2ccc(NC(=O)CC3CCCC3)cc2)nc1Cn1cccn1 | 896 |
| Fc1cccc(-c2nc(-c3ccc4nncn4c3)no2)c1 | 813 |
| Cc1cccc(N2CCN(Cc3nc4nc(C)cc(N5CCOCC5)n4n3)CC2)c1 | 636 |
| CCN1C(=O)COc2ccc(-c3csc(NC(=O)CCC4CCCCC4)n3)cc21 | 934 |

| Structure (SMILES) | RP-LC retention time [s] |
| --- | --- |
| O=C(c1ccc(F)c(F)c1)N1CCCC(c2ccnc(-c3cccc(F)c3)n2)C1 (stereo not given) | 1120 |
| O=C(NCc1nn(Cc2ccccc2)c2ccccc12)c1ccco1 | 853 |
| CCOc1cc(C(=O)NC(C(=O)Nc2nc3ccccc3[nH]2)C(C)CC)cc(OCC)c1OCC (stereo not given) | 854 |
| O=C(NCC1CCCO1)c1ccc(Nc2c(-c3ccccc3)nc3cnccn23)cc1 (stereo not given) | 1140 |
| CCN(CC)CCNC(=O)c1nnc(-c2ccc(S(=O)(=O)N3CCC(C)CC3)cc2)o1 | 696 |
| Cc1ccccc1N1CCN(S(=O)(=O)c2cc(-c3nnc(C4CC4)o3)co2)CC1 | 1090 |
| COc1nccnc1NC1CCN(C(=O)c2ccco2)CC1 | 690 |
| CCN(CC)S(=O)(=O)c1ccc(C)c(-c2nnc(-c3ccccc3)o2)c1 | 1090 |
| CC(C)N1CCN(C(=O)C2CCN(c3nc4ccc(-c5ccccc5)nc4s3)CC2)CC1 | 696 |
| COc1ccc(CNC(=O)Cn2ncc3c(c2=O)N(C2CC2)C(=O)CS3)cc1 | 667 |
| CCN1CCN(Cc2ccc(C(=O)N3CCN(c4ccc(C)cc4)CC3)cc2)C(=O)C1=O | 694 |
| O=C(NC1CC1)c1cc2cc(Br)ccc2[nH]1 | 817 |
| CC#CCOC(=O)c1c(C)nc2sc3c(c2c1N)CCC(O)C3 (stereo not given) | 662 |
| Cc1ccccc1-c1noc(Cn2cnc3c(cnn3-c3cc(Cl)ccc3C)c2=O)n1 | 1100 |
| CN1C(=O)CCC2(CNC(=O)Nc3ccccc3)CCC=C12 (stereo not given) | 721 |
| CCOc1ccc(-c2nc3ncccn3c2NCc2ccc(C)cc2)cc1 | 800 |
| CC(=O)c1ccc(Oc2ccc(/C(C)=N\N=C(N)N)cc2)cc1 | 674 |
| Cc1cc(Cl)ccc1NC(=O)CCc1c(C)nn(-c2cc(N(C)C)ncn2)c1C | 862 |
| CC1CCN(S(=O)(=O)c2ccc(C(=O)Nc3nc4c(s3)Cc3ccccc3-4)cc2)CC1 | 1230 |
| O=C(Cn1cccc(-c2nc(-c3ccc(Br)cc3)no2)c1=O)Nc1ccccc1 | 968 |
| COc1ccc(C2(C(=O)N3CCN(C(=O)c4cc(-c5cccnc5)n[nH]4)CC3)CC2)cc1 | 621 |
| COc1cccc(CNC2=NCCNC23CCN(S(=O)(=O)c2ccc(C(C)C)cc2)CC3)c1 | 836 |
